“And” between values parts separate entries of the source, which are not always exact repeats. Equal values may be shown once. Toxic doses and inconclusive results are not listed. Cut-off read from the data, not from the text of the source: active = T/C of 150% or more; inactive = T/C below 125%.
Test system: L1210 leukemia ip in BDF1 mice, survival T/C
Assay: NCI In Vivo Anticancer Drug Screen. Data for tumor model L1210 Leukemia (intraperitoneal) in B6D2F1 (BDF1) mice
Details: endpoint: mean survival time, higher = longer survival
How it was run: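 Tumor was transplanted into mice, which were then dosed with test compound or vehicle alone. Survival was recorded for each group, and the treated figure was expressed relative to the control figure.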

[1] = dose: 100.0 mg/kg/injection, schedule: Q01DX001 (ip), vehicle: carboxymethylcellulose (CMC)
[2] = dose: 200.0 mg/kg/injection, schedule: Q01DX001 (ip), vehicle: carboxymethylcellulose (CMC)
[3] = dose: 400.0 mg/kg/injection, schedule: Q01DX001 (ip), vehicle: carboxymethylcellulose (CMC)
[4] = dose: 100.0 mg/kg/injection, schedule: Q01DX009 (ip), vehicle: saline
[5] = dose: 100.0 mg/kg/injection, schedule: Q04DX003 (ip), vehicle: saline
[6] = dose: 200.0 mg/kg/injection, schedule: Q01DX009 (ip), vehicle: saline
[7] = dose: 200.0 mg/kg/injection, schedule: Q04DX003 (ip), vehicle: saline
[8] = dose: 400.0 mg/kg/injection, schedule: Q01DX009 (ip), vehicle: saline
[9] = dose: 400.0 mg/kg/injection, schedule: Q04DX003 (ip), vehicle: saline
[10] = dose: 100.0 mg/kg/injection, schedule: Q01DX009 (ip), vehicle: Klucel (hydroxypropylcellulose) (HPC)
[11] = dose: 200.0 mg/kg/injection, schedule: Q01DX009 (ip), vehicle: Klucel (hydroxypropylcellulose) (HPC)
[12] = dose: 400.0 mg/kg/injection, schedule: Q01DX009 (ip), vehicle: Klucel (hydroxypropylcellulose) (HPC)
[13] = dose: 100.0 mg/kg/injection, schedule: Q04DX002 (ip), vehicle: saline with Tween-80
[14] = dose: 200.0 mg/kg/injection, schedule: Q04DX002 (ip), vehicle: saline with Tween-80
[15] = dose: 30.0 mg/kg/injection, schedule: Q01DX001 (ip), vehicle: saline
[16] = dose: 100.0 mg/kg/injection, schedule: Q04DX003 (ip), vehicle: Klucel (hydroxypropylcellulose) (HPC)
[17] = dose: 200.0 mg/kg/injection, schedule: Q04DX003 (ip), vehicle: Klucel (hydroxypropylcellulose) (HPC)
[18] = dose: 400.0 mg/kg/injection, schedule: Q04DX003 (ip), vehicle: Klucel (hydroxypropylcellulose) (HPC)

Measured: T/C

CC1c2nc(N)nc(N)c2CN1C(=O)c1ccccc1 (configuration not stated)
inactive: [1] 98 % of control | [2] 98 % of control | [3] 97 % of control

CC1(C)CCCC(Cl)(C(Cl)c2ccccc2)C1=O (configuration not stated)
inactive: [4] 90 % of control | [5] 104 % of control | [6] 95 % of control | [7] 102 % of control | [8] 91 % of control | [9] 104 % of control

COc1ccc(C)cc1NC(=O)Nc1cc(C(F)(F)F)ccc1Cl
inactive: [10] 88 % of control | [11] 95 % of control | [12] 90 % of control

CC(CBr)C(=O)O (configuration not stated)
inactive: [13] 97 % of control | [14] 97 % of control

O=C(O)C(C=C(Cl)Cl)N1CCCCC1 (configuration not stated)
inactive: [5] 98 % of control | [7] 93 % of control | [9] 94 % of control

O=C(Nc1ccc(S(=O)(=O)Nc2ccc(N=Nc3ccc(S(=O)(=O)Nc4nccs4)cc3)cc2)cc1)C(N1CC1)(N1CC1)N1CC1
inactive: dose: 15.0 mg/kg/injection, schedule: Q01DX001 (ip), vehicle: saline 105 % of control | [15] 105 % of control

O=C(Nc1ccc(Cl)c(Cl)c1)SCCSC(=O)Nc1ccc(Cl)c(Cl)c1
inactive: dose: 100.0 mg/kg/injection, schedule: Q01DX001 (ip), vehicle: saline with Tween-80 107 % of control | dose: 200.0 mg/kg/injection, schedule: Q01DX001 (ip), vehicle: saline with Tween-80 92 % of control | dose: 400.0 mg/kg/injection, schedule: Q01DX001 (ip), vehicle: saline with Tween-80 93 % of control

Cc1ccc(S(=O)(=O)N=Nc2c(O)[nH]c3cc(O)c(C(=O)O)cc23)cc1
inactive: dose: 50.0 mg/kg/injection, schedule: Q04DX003 (ip), vehicle: Klucel (hydroxypropylcellulose) (HPC) 103 % of control | [16] 92 % of control | dose: 100.0 mg/kg/injection, schedule: Q04DX003 (ip), vehicle: saline with Tween-80 100 % of control | [17] 92 % of control and 98 % of control | dose: 200.0 mg/kg/injection, schedule: Q04DX003 (ip), vehicle: saline with Tween-80 110 % of control | [18] 95 % of control | dose: 400.0 mg/kg/injection, schedule: Q04DX003 (ip), vehicle: saline with Tween-80 110 % of control

CN(C)C(=N)C(=N)N(C)C
inactive: [4] 96 % of control | [5] 98 % of control | [6] 88 % of control | [7] 100 % of control | [8] 94 % of control | [9] 93 % of control

CSc1ccc(NC(=O)Oc2cc(C)ccc2C(C)C)cc1
inactive: dose: 50.0 mg/kg/injection, schedule: Q01DX009 (ip), vehicle: Klucel (hydroxypropylcellulose) (HPC) 94 % of control | [10] 100 % of control and 88 % of control | [11] 89 % of control | [12] 91 % of control

CCCCCCN(S(=O)(=O)c1ccc([N+](=O)[O-])cc1)S(=O)(=O)c1ccc([N+](=O)[O-])cc1
inactive: [16] 96 % of control | [17] 88 % of control | [18] 88 % of control

CS(=O)(=O)O/C=C1/CCOC1=O
inactive: dose: 12.5 mg/kg/injection, schedule: Q01DX009 (ip), vehicle: water 105 % of control | dose: 25.0 mg/kg/injection, schedule: Q01DX009 (ip), vehicle: water 106 % of control

CS(=O)(=O)OCCF
inactive: dose: 0.25 mg/kg/injection, schedule: Q01DX009 (ip), vehicle: saline 101 % of control | dose: 0.5 mg/kg/injection, schedule: Q01DX009 (ip), vehicle: saline 103 % of control | dose: 1.0 mg/kg/injection, schedule: Q01DX009 (ip), vehicle: saline 103 % of control | dose: 2.5 mg/kg/injection, schedule: Q01DX009 (ip), vehicle: carboxymethylcellulose (CMC) 103 % of control | dose: 2.5 mg/kg/injection, schedule: Q01DX009 (ip), vehicle: saline 103 % of control | dose: 5.0 mg/kg/injection, schedule: Q01DX009 (ip), vehicle: carboxymethylcellulose (CMC) 108 % of control | dose: 6.25 mg/kg/injection, schedule: Q04DX003 (ip), vehicle: saline with Tween-80 114 % of control | dose: 9.0 mg/kg/injection, schedule: Q01DX009 (ip), vehicle: saline 92 % of control | dose: 10.5 mg/kg/injection, schedule: Q01DX015 (ip), vehicle: saline 97 % of control | dose: 10.8 mg/kg/injection, schedule: Q01DX015 (ip), vehicle: saline 100 % of control | dose: 12.5 mg/kg/injection, schedule: Q01DX001 (ip), vehicle: acetone 103 % of control | dose: 12.5 mg/kg/injection, schedule: Q01DX009 (ip), vehicle: acetone 106 % of control | dose: 18.0 mg/kg/injection, schedule: Q01DX015 (ip), vehicle: saline 114 % of control | dose: 20.0 mg/kg/injection, schedule: Q01DX009 (ip), vehicle: carboxymethylcellulose (CMC) 87 % of control | dose: 25.0 mg/kg/injection, schedule: Q01DX001 (ip), vehicle: acetone 116 % of control | dose: 25.0 mg/kg/injection, schedule: Q01DX001 (ip), vehicle: saline 94 % of control | [15] 98 % of control | dose: 30.0 mg/kg/injection, schedule: Q01DX015 (ip), vehicle: saline 113 % of control and 91 % of control | dose: 44.0 mg/kg/injection, schedule: Q01DX001 (ip), vehicle: saline 106 % of control and 122 % of control | dose: 50.0 mg/kg/injection, schedule: Q01DX001 (ip), vehicle: acetone 103 % of control | dose: 50.0 mg/kg/injection, schedule: Q01DX001 (ip), vehicle: carboxymethylcellulose (CMC) 117 % of control | dose: 50.0 mg/kg/injection, schedule: Q01DX001 (ip), vehicle: saline 102 % of control and 109 % of control | [2] 97 % of control | dose: 400.0 mg/kg/injection, schedule: Q01DX001 (ip), vehicle: saline 87 % of control

O=C(CCN1CCOCC1)c1csc2ccccc12
inactive: [1] 102 % of control | [2] 102 % of control | [3] 96 % of control

COC(=O)CNc1cccc([N+](=O)[O-])c1
inactive: [16] 95 % of control | [17] 102 % of control | [18] 101 % of control

O=C1C=CC(=O)N1c1ccc(O)cc1
inactive: dose: 1.25 mg/kg/injection, schedule: Q01DX009 (ip), vehicle: Klucel (hydroxypropylcellulose) (HPC) 105 % of control | dose: 2.5 mg/kg/injection, schedule: Q01DX009 (ip), vehicle: Klucel (hydroxypropylcellulose) (HPC) 107 % of control | dose: 2.5 mg/kg/injection, schedule: Q04DX003 (ip), vehicle: Klucel (hydroxypropylcellulose) (HPC) 96 % of control | dose: 5.0 mg/kg/injection, schedule: Q01DX009 (ip), vehicle: Klucel (hydroxypropylcellulose) (HPC) 102 % of control | dose: 5.0 mg/kg/injection, schedule: Q04DX003 (ip), vehicle: Klucel (hydroxypropylcellulose) (HPC) 95 % of control

Clc1cccc(C[P+](c2ccccc2)(c2ccccc2)c2ccccc2)c1
inactive: dose: 1.5 mg/kg/injection, schedule: Q01DX009 (ip), vehicle: Klucel (hydroxypropylcellulose) (HPC) 91 % of control | dose: 3.0 mg/kg/injection, schedule: Q01DX009 (ip), vehicle: Klucel (hydroxypropylcellulose) (HPC) 94 % of control | dose: 6.0 mg/kg/injection, schedule: Q01DX009 (ip), vehicle: Klucel (hydroxypropylcellulose) (HPC) 88 % of control | dose: 12.5 mg/kg/injection, schedule: Q04DX003 (ip), vehicle: Klucel (hydroxypropylcellulose) (HPC) 98 % of control | dose: 25.0 mg/kg/injection, schedule: Q04DX003 (ip), vehicle: Klucel (hydroxypropylcellulose) (HPC) 98 % of control

CN=C(NC1CCCCC1)c1ccc(NC(=O)c2ccc(C(=O)Nc3ccc(C(=NC)NC4CCCCC4)cc3)cc2)cc1
inactive: dose: 1.88 mg/kg/injection, schedule: Q01DX Z (ip), vehicle: saline 102 % of control | dose: 3.75 mg/kg/injection, schedule: Q01DX Z (ip), vehicle: saline 100 % of control | dose: 7.5 mg/kg/injection, schedule: Q01DX Z (ip), vehicle: saline 102 % of control

CCOC(=O)/C(=C\c1ccc(N(C)C)cc1)c1nc2ccccc2[nH]1
inactive: [13] 92 % of control | [14] 92 % of control | dose: 400.0 mg/kg/injection, schedule: Q04DX002 (ip), vehicle: saline with Tween-80 104 % of control

CCC1(CC)NC(=O)NC1=O
inactive: dose: 50.0 mg/kg/injection, schedule: Q04DX003 (ip), vehicle: saline 102 % of control | [4] 99 % of control | [5] 105 % of control | [6] 98 % of control | [7] 102 % of control | [8] 102 % of control | [9] 103 % of control

Source: PubChem BioAssay AID248 (DTP/NCI, 2004)
